For orientation: IC50 means the concentration needed to halve the response being measured. Read a low IC50 as greater potency.

Assay [1] relates to HCT-116. The experiment in a line: Cytotoxicity against human HCT116 cells. The assay is classed as functional, cell-based.
Assay [2] has as its system L1210. The experiment in a line: Cytotoxicity against mouse L1210 cells. The assay is classed as functional, cell-based.
Assay [3] concerns HCT-116. The assay is described as follows: Ratio of vincristine IC50 to compound IC50 for human HCT116 cells. It is filed as functional.
The subject of assay [4] is L1210. The assay is described as follows: Ratio of vincristine IC50 to compound IC50 for mouse L1210 cells. It is filed as functional.
The test system of assay [5] is HCT-116/VM46. The experiment in a line: Ratio of vincristine IC50 to compound IC50 for human vincristine-resistant HCT116/VM46 cells. It is filed as functional.
The test system of assay [6] is L1210. The experiment in a line: Ratio of vinblastin IC50 to compound IC50 for mouse L1210 cells. The assay is classed as functional.
Assay [7] has as its system HCT-116/VM46. The experiment in a line: Cytotoxicity against human vinblastin-resistant HCT116/VM46 cells. The assay is classed as functional, cell-based.
Assay [8] deals with HCT-116. The assay is described as follows: Ratio of vinblastin IC50 to compound IC50 for human HCT116 cells. It is filed as functional.
The test system of assay [9] is HCT-116/VM46. The experiment in a line: Antitumor activity against human HCT116/VM46 cells xenografted in mouse assessed as mouse survival at 0.01 to 0.5 mg/kg, ip after 110 days. It is filed as functional, organism-based.
The test system of assay [10] is HCT-116/VM46. The experiment in a line: Ratio of vinblastin IC50 to compound IC50 for human vinblastin-resistant HCT116/VM46 cells. It is filed as functional.
Assay [11] concerns HCT-116. The assay is described as follows: Antitumor activity against human HCT116 cells xenografted in mouse assessed as mouse survival at 0.5 mg/kg. It is filed as functional, organism-based. Also noted: dose 0.5 mg/kg. (In xenograft studies the graft and the host belong to different species.)

SMILES strings stand for the structures. Calls of active or inactive are those of the source. No cut-off for these calls is given here.

Regarding `CC[C@]1(O)C[C@H]2CN(CCc3c([nH]c4ccc(F)cc34)[C@@](C(=O)OC)(c3cc4c(cc3OC)N(C=O)[C@H]3[C@@](O)(C(=O)OC)[C@H](OC(C)=O)[C@]5(CC)C=CCN6CC[C@]43[C@@H]65)C2)C1`, the concentration for half-maximal inhibition (IC50) is 1.5 nM in [1] and 0.8 nM in [2]. Also, the “Ratio IC50” value in assay [3], in assay [4] and in assay [5] was 5 in each case.
As to `CC[C@]1(O)C[C@H]2CN(CCc3c([nH]c4ccc(F)cc34)[C@@](C(=O)OC)(c3cc4c(cc3OC)N(C)[C@H]3[C@@](O)(C(=O)OC)[C@H](OC(C)=O)[C@]5(CC)C=CCN6CC[C@]43[C@@H]65)C2)C1`, the half-inhibitory concentration (IC50) was determined as 0.8 nM in assay [1], 0.7 nM in assay [2] and 80 nM in [7]. The “Ratio IC50” value in assay [6], in [8] and in assay [10] was 8 each time. In assay [9], the result was Active.
With `CC[C@]1(O)C[C@H]2CN(CCc3c([nH]c4c(Br)cccc34)[C@@](C(=O)OC)(c3cc4c(cc3OC)N(C)[C@H]3[C@@](O)(C(=O)OC)[C@H](OC(C)=O)[C@]5(CC)C=CCN6CC[C@]43[C@@H]65)C2)C1`, the IC50 in assay [1] amounted to 80 nM; in assay [2], 50 nM; in [7] it was 910 nM.
As for `CC[C@]1(O)C[C@@H]2CN(CCc3c([nH]c4ccccc34)[C@@](C(=O)OC)(c3cc4c(cc3OC)N(C)[C@H]3[C@@](O)(C(=O)OC)[C@H](OC(C)=O)[C@]5(CC)C=CCN6CC[C@]43[C@@H]65)C2)C1` [VINBLASTINE], the outcome in assay [11] was Active. The compound further showed a concentration for half-maximal inhibition (IC50) in assay [7] of 600 nM.
Regarding `CCC1=C[C@H]2CN(CCc3c([nH]c4ccc(C#N)cc34)[C@@](C(=O)OC)(c3cc4c(cc3OC)N(C)[C@H]3[C@@](O)(C(=O)OC)[C@H](OC(C)=O)[C@]5(CC)C=CCN6CC[C@]43[C@@H]65)C2)C1`, the half-inhibitory concentration (IC50) in assay [1] stood at 70 nM; in [2], 65 nM; in assay [7], 920 nM.
For the compound `CCC1=C[C@H]2CN(CCc3c([nH]c4ccc(Cl)cc34)[C@@](C(=O)OC)(c3cc4c(cc3OC)N(C)[C@H]3[C@@](O)(C(=O)OC)[C@H](OC(C)=O)[C@]5(CC)C=CCN6CC[C@]43[C@@H]65)C2)C1`, the IC50 in assay [1] is 70 nM; in assay [2], 60 nM; in assay [7], 800 nM.
In the same order, the values of `CC[C@]1(O)C[C@H]2CN(CCc3c([nH]c4c(F)cccc34)[C@@](C(=O)OC)(c3cc4c(cc3OC)N(C)[C@H]3[C@@](O)(C(=O)OC)[C@H](OC(C)=O)[C@]5(CC)C=CCN6CC[C@]43[C@@H]65)C2)C1` are 65 nM, 50 nM and 730 nM.
In the same order, the values of `CC[C@]1(O)C[C@H]2CN(CCc3c([nH]c4ccc(Cl)cc34)[C@@](C(=O)OC)(c3cc4c(cc3OC)N(C)[C@H]3[C@@](O)(C(=O)OC)[C@H](OC(C)=O)[C@]5(CC)C=CCN6CC[C@]43[C@@H]65)C2)C1` are 7.6 nM, 6.2 nM and 720 nM.

The record behind these values is ChEMBL document CHEMBL2177037, “10'-Fluorovinblastine and 10'-Fluorovincristine: Synthesis of a Key Series of Modified Vinca Alkaloids” (ACS Med Chem Lett, 2011).
